“And” between values parts separate entries of the source, which are not always exact repeats. Equal values may be shown once. Read-outs that look alike come from different tables or passages of the source.
How the values were obtained:
[1] = target: VEGFR2 (Homo sapiens, UniProt P35968); test: RTK autophosphorylation ELISA, HUVEC stimulated with VEGF165; format: cell-based; parameters: cell lines (PC-3, HUVEC, and A-172) stimulated with ligands to their respective receptors to induce autophosphorylation (MET, VEGFR2, and AXL); endogenous in cells; host or cells: HUVEC; settings: VEGFR2, ligand VEGF165; read-out: Cellular IC50
Procedure: The activity of Compound 1 was evaluated in cell-based assays that assessed the mechanistic effects of the compound in tumor and normal cells. Consistent with the biochemical data, Compound 1 is a potent inhibitor of cellular RTKs as assessed by analysis of receptor autophosphorylation as measured by enzyme-linked immunosorbent assay. Assays were performed using cell lines (PC-3, HUVEC, and A-172) stimulated with ligands to their respective receptors to induce autophosphorylation (MET, VEGFR2, and AXL) or a cell line (293A) transfected with an expression vector encoding the receptor of interest (MER). Inhibition of endogenous phosphorylated MET by Compound 1 in Hs 746T gastric carcinoma cells was also investigated due to the presence of the skip-splice mutation of exon 14 in the MET gene. This MET exon 14 alteration leads to increased MET stability and oncogenic activation, including constitutive MET phosphorylation. Also this mutation is known to occur in 3% of lung adenocarcinoma patients and to be sensitive to MET-targeted therapies (Frampton et al 2015).

[2] = Hepatocyte stability assay; format: in vitro ADME, monkey; settings: hepatocytes
Procedure: (§1) In the liver microsomal stability assay, CLint was 0.601 mL/min/g liver in mouse, 0.563 mL/min/g liver in rat, 0.315 mL/min/g liver in dog, 0.734 mL/min/g liver in monkey, and 0.639 mL/min/g liver in human. In the hepatocyte stability assay, Compound 1 CLint was 0.373 mL/min/g liver in mouse, 0.285 mL/min/g liver in rat, 1.08 mL/min/g liver in dog, 0.533 mL/min/g liver in monkey, and 0.317 mL/min/g liver in human.

[3] = In vitro plasma protein binding; format: in vitro ADME, human
Procedure: Plasma PK of Compound 1 was characterized in rats and beagle dogs. Toxicokinetic (TK) evaluations of oral Compound 1 were evaluated in repeat-dose studies in rats and dogs. Plasma protein binding was determined in mouse, rat, dog, monkey, and human plasma in vitro. Biotransformation and metabolite profiling of Compound 1 were investigated in vitro using mouse, rat, dog, monkey, and human liver microsomal fractions and hepatocytes and in vivo in rats and dogs. P-glycoprotein (P-gp) and breast cancer resistance protein (BCRP) transporter interaction studies, in vitro experiments evaluating cytochrome P450 (CYP) induction and inhibition by Compound 1, and CYP and glucuronosyltransferase (UGT) substrate specificity studies of Compound 1 were also performed.
Compound 1 (10 μM) was 97.2 and 97.5% protein bound in monkey and human plasma, respectively.

[4] = tested on: CYP2C9; test: Cytochrome P450 induction (mRNA levels) in fresh primary human hepatocytes; format: in vitro ADME
[5] = Toxicokinetics in 28-day repeat-dose toxicity study; format: in vivo, rats; settings: for half-life: oral, read-out: Half-life (t1/2)
Procedure: In a 28-day repeat-dose toxicity study in rats dosed orally daily with Compound 1 at 1, 3 or 10 mg/kg, Compound 1 exposure (Cmax and AUC0-24) increased with the increase in dose level from 1-10 mg/kg/day. […] Accumulation ratio values ranged from 0.721-1.14 for Cmax and from 0.722-0.891 for AUC0-24. Consistent with the single-dose PK data, exposure in rats at steady-state on Day 28 for low doses appeared to be approximately 20-fold higher than that observed in dogs.

[6] = tested on: primary human macrophages; test: Efferocytosis: primary human macrophages cultured with apoptotic Jurkat cells; format: cell-based; settings: read-out: Cellular IC50 (nM) (n = 2); one row per donor (#1-#5); geometric mean +/− geometric standard deviation
Procedure: In addition, the TAM RTKs are critical in the process of efferocytosis, or the recognition and phagocytosis of apoptotic cells that maintains normal tissue homeostasis. When efferocytosis is inhibited, macrophages engage a proinflammatory activation response. When primary human macrophages are cultured with apoptotic Jurkat cells in the presence of Compound 1, their phagocytic ability was inhibited in a dose dependent manner. In Table 5, the IC50 from 5 independent donors are listed.

[7] = Hepatocyte stability assay; format: in vitro ADME, dog; settings: hepatocytes
Procedure: The mean plasma t1/2, z values were approximately 9 hours in rats and 4 hours in dogs. Interspecies scaling based on body weight to predict PK parameters in humans could not be performed because dogs (larger species) cleared Compound 1 faster than rats (smaller species). Therefore, the human PK was projected based on one species (rat). […] This apparent clearance value (CL/F) was used to predict steady-state exposure (AUC and average plasma concentration [Cavg]) in humans for the proposed first-in-human (FIH) starting dose for Study Compound 1-001.
as §1

[8] = Repeat-dose toxicity studies (7-day range-finding, definitive 28-day, 14-day recovery); format: in vivo, dogs
Procedure: The nonclinical toxicity of Compound 1 was characterized in dose range-finding 7-day and definitive 28-day repeat-dose studies in rats and dogs, and in in vitro bacterial and mammalian genotoxicity bioassays. Compound 1 was also evaluated in definitive neurobehavioral, respiratory and cardiovascular safety pharmacology studies.

[9] = Liver microsomal stability assay; format: in vitro ADME, monkey; settings: liver microsomes
Procedure: as §1

[10] = target: MET (Homo sapiens, UniProt P08581); test: In vivo target modulation: MET phosphorylation by Western blot in NCI-H441 xenografts; parameters: endogenous in cells; host or cells: NCI-H441 human tumour xenografts in athymic nude mice; species or system athymic nude mice; settings: for Compound 1 Plasma Exposure: qd × 14, 4 hours after last dose on Day 14
Procedure: Three human tumor cell lines, NCI-H441, MDA-MB-231, and SNU-5, were selected for use in tumor xenograft studies using athymic nude, NSG and CB.17 SCID mice, respectively. Pharmacodynamic modulation of MET phosphorylation was also measured in the NCI-H441 and SNU-5 xenografts. Tumor-bearing mice were orally dosed once-daily for 14 days (qd×14), and the tumors were resected and processed for MET phosphorylation analysis by Western blot. […]

[11] = Day 28 vs Day 1, 1-10 mg/kg/day
[12] = NCI-H441, mouse, po, read-out: p-MET Inhibition %

Chain of MET (P08581 25-1390): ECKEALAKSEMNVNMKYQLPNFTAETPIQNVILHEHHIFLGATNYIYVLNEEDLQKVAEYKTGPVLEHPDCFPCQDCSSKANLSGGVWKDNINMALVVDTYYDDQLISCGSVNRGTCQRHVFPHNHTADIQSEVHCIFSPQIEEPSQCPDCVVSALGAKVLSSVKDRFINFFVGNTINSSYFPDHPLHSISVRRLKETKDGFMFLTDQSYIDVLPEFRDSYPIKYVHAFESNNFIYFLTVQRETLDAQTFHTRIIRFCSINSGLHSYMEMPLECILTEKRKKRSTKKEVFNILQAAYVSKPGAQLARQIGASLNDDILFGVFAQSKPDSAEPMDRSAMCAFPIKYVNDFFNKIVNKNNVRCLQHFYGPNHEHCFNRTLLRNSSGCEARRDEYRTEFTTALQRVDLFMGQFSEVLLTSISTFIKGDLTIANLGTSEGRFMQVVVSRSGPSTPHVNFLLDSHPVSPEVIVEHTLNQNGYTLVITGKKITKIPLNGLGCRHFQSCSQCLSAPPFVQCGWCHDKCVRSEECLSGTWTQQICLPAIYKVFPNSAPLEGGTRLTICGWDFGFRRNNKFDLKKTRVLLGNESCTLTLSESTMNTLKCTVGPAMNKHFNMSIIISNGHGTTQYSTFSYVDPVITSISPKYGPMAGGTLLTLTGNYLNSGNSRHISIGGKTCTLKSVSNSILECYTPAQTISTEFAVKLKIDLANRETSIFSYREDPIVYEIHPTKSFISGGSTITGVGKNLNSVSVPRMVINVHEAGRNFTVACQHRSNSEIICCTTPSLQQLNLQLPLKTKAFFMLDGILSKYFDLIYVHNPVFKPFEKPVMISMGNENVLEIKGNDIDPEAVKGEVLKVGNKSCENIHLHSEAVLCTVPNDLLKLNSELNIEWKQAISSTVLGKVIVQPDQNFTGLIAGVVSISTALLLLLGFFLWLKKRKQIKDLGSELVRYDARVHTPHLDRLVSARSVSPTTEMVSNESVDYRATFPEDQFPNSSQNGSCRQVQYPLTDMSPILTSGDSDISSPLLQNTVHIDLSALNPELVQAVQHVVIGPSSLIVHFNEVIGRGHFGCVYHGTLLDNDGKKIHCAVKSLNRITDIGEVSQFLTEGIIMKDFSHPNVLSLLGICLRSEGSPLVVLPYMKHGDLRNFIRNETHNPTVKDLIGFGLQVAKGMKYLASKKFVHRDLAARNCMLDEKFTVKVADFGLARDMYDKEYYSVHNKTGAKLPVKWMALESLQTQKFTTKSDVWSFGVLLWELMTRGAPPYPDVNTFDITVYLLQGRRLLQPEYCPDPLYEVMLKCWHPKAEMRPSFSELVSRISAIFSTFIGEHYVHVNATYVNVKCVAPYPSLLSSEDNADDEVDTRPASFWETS
Chain of VEGFR2 (P35968 20-1356): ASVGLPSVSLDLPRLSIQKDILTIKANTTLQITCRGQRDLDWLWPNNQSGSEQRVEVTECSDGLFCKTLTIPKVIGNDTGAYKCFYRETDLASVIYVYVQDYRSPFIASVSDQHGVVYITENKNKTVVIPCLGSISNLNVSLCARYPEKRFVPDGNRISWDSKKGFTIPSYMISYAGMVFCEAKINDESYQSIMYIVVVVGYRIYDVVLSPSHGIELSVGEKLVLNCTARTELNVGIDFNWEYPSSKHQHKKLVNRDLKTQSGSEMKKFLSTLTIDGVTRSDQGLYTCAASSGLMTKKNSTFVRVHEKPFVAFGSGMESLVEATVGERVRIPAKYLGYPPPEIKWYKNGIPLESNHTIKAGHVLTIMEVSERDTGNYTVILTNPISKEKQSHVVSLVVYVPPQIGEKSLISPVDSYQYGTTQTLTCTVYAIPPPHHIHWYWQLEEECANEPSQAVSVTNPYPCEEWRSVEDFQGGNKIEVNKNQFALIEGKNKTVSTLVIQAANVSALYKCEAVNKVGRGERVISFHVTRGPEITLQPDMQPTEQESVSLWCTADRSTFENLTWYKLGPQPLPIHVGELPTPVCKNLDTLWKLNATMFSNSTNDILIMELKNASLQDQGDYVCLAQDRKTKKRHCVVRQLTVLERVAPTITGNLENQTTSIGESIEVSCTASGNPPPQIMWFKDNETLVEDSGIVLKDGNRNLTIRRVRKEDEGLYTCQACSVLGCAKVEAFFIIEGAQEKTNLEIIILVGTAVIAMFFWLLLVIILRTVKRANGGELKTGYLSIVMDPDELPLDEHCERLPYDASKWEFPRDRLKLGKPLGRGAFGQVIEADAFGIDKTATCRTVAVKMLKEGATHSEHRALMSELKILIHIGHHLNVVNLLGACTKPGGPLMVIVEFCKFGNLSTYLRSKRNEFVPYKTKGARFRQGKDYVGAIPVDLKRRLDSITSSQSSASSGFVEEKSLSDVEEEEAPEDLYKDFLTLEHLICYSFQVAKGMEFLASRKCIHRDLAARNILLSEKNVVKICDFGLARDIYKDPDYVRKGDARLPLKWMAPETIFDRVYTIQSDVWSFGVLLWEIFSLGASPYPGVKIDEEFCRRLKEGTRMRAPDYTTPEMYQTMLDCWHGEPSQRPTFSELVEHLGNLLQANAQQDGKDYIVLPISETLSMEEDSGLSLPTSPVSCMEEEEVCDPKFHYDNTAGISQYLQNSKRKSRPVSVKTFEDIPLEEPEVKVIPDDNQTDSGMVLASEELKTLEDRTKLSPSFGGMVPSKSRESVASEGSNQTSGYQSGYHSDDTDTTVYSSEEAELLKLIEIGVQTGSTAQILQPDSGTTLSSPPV

For `CNC(=O)c1cc2c(Oc3ccc(NC(=O)C4(C(=O)Nc5ccc(F)cc5)CC4)cc3)ccnc2cc1OC` [Compound 1, 1-N′-(4-Fluorophenvl)-1-N-[4-[7-methoxy-6-(methylcarbamovl)quinolin-4-yl]oxyphenyl]cyclopropane-1,1-dicarboxamide], the IC50 [1] was 0.0015 µM, the CLint [2] was 0.533 mL/min/g liver and the protein bound ([3]; 10 μM) was 97.5%. For the same compound, the fraction unbound ([3]; human, plasma, 0.2 and 1 μM) was less than 0.01, the EC50 ([4]; human, fresh primary human hepatocytes, mRNA induction, read-out: half-maximal effective concentration (EC50)) was 1.71 µM and the “maximal induction effect (Emax)” value ([4]; mRNA, 0.1-100 μM) was 5 fold. For the same compound, the “Sex differences in mean Cmax and AUC values” ([5]; 28-day study) was “less than 2 fold”, the “steady-state exposure in rats relative to dogs” value ([5]; Day 28, dose-normalized AUC0-24, ss, higher in rats) was “approximately 20 fold” and the “Accumulation ratio for AUC0-24” value [5, 11] was 0.722-0.891. The “Accumulation ratio for Cmax” value [5, 11] was 0.721-1.14, the half-life ([5]; both sexes, rat, plasma, Day 1) was 3.51 to 3.7 h and the half-life ([5]; both sexes, rat, plasma, Day 28) was 6.7 to 8.97 h. For the same compound, the Tmax ([5]; both sexes, rat, plasma, oral daily 1, 3 or 10 mg/kg, Days 1 and 28) was 2 to 8 h, the IC50 [6] was 42.7 nM and 45.1 nM and 44 nM and 96.5 nM and 181 nM and the CLint [7] was 1.08 mL/min/g liver. The “reversibility of adverse findings” value ([8]; 14-day non-treatment recovery period) was “partially or completely reversible”, the Cmax at 28 days ([8]; both sexes, dog, plasma, oral, 18 mg/kg/day, daily dosing for 28 days) was roughly 7 µM and the ophthalmic findings ([8]; daily for 4 weeks) was “No adverse ophthalmic findings”. For the same compound, the QTc interval ([8]; male and female dogs, daily dosing 28 days, 18 mg/kg/day) was “no QTc interval prolongation”, the cholesterol ([8]; repeat-dose) was “increased cholesterol” and the dose-related clinical signs ([8]; repeat-dose) was “hypoactivity, vomitus, and fecal changes”. The reticulocytes ([8]; repeat-dose) was “transient decreases in reticulocytes”, the “nasal turbinate histologic findings” value ([8]; terminal sacrifice males >6 mg/kg/day, considered non-adverse) was “increased incidences and severities of mixed cell inflammation and osteolysis/osteogenesis” and the CLint [9] was 0.734 mL/min/g liver. For the same compound, the “Compound 1 Plasma Exposure” value ([10]; 3 mg/kg) was 2.44 µM, the “Compound 1 Plasma Exposure” value ([10]; 10 mg/kg) was 9.71 µM and the inhibition at 3 mg/kg [10, 12] was 60%. The inhibition at 10 mg/kg [10, 12] was 82%.

Reference: patent US12673052B2, “Combinations for the treatment of cancer” (Exelixis, Inc., priority 2020, dated 2026)
